Reference: the NIST ThermoML archive (doi:10.1021/je400803f)

Assay: xn = mol fraction of the nth substance listed
Conditions: 101 kPa, Liquid, Vibrating tube method

CCCC[N+]1(C)CCCC1.FC(F)(F)C(F)(F)[P-](F)(F)(F)(C(F)(F)C(F)(F)F)C(F)(F)C(F)(F)F + CN(C)C=O
mass density [kg/m3]
Conditions | 293.15 K | 298.15 K | 303.15 K | 308.15 K | 313.15 K | 318.15 K | 323.15 K
x1 = 0.0165 | 993.84 | 988.9 | 983.96 | 978.95 | 973.88 | 968.76 | 963.52
x1 = 0.0379 | 1045.32 | 1040.31 | 1035.26 | 1030.17 | 1024.98 | 1019.76 | 1014.46
x1 = 0.0636 | 1098.24 | 1093.11 | 1087.96 | 1082.78 | 1077.52 | 1072.2 | 1066.82
x1 = 0.0999 | 1160.65 | 1155.44 | 1150.21 | 1144.9 | 1139.55 | 1134.13 | 1128.66
x1 = 0.1381 | 1214.48 | 1209.17 | 1203.86 | 1198.5 | 1193.09 | 1187.58 | 1182.02
x1 = 0.2002 | 1284.15 | 1278.78 | 1273.37 | 1267.93 | 1262.4 | 1256.85 | 1251.25
x1 = 0.3038 | 1367.83 | 1362.38 | 1356.95 | 1351.43 | 1345.95 | 1340.13 | 1334.59
x1 = 0.3944 | 1420.86 | 1415.36 | 1409.86 | 1404.36 | 1398.78 | 1393.18 | 1387.5
x1 = 0.4946 | 1465.66 | 1460.2 | 1454.71 | 1449.18 | 1443.63 | 1438.04 | 1432.36
x1 = 0.5997 | 1502.25 | 1496.77 | 1491.29 | 1485.78 | 1480.25 | 1474.66 | 1469.03
x1 = 0.6972 | 1529.32 | 1523.85 | 1518.39 | 1512.87 | 1507.34 | 1501.77 | 1496.17
x1 = 0.7887 | 1550.58 | 1545.07 | 1539.56 | 1534.11 | 1528.58 | 1523.04 | 1517.43
x1 = 0.8853 | 1569.6 | 1564.14 | 1558.67 | 1553.16 | 1547.65 | 1542.09 | 1536.51
